Consider seven molecules from ChEMBL document CHEMBL5375989, “Pioneering 4,11-Dioxo-4,11-dihydro-1H-anthra[2,3-d]imidazol-3-ium Compounds as Promising Survivin Inhibitors by Targeting ILF3/NF110 for Cancer Therapy” (J Med Chem, 2023).

Data set [1] can be described thus: (§1) Antiproliferative activity against mouse L929 cells assessed as inhibition of cell growth measured after 48 hrs by MTT assay. The class given is toxicity, cell-based. To be noted: mouse, L929 cells.
Data set [2] in a line: Selectivity index, ratio of IC50 for mouse L929 cells to IC50 for human A549 cells. The format is toxicity. To be noted: for selectivity ratio: L929 cells and A549 cells, read-out: Ratio IC50.
Data set [3] concerns A549. The experiment in a line: cells. To be noted: Homo sapiens, A549, 48 h.
Description: (§2) Antiproliferative activity against human A549 cells assessed as inhibition of cell growth measured after 48 hrs by MTT assay
The subject of a further data set is L929. The data set is described as §1. Particulars: l929. The format is toxicity, cell-based.
In data set [4] the test system is A549.
Description: as §2

Usually IC50 stands for the concentration that gives 50% inhibition.

In the case of `Cn1c2c([n+](C)c1-c1ccco1)C(=O)c1cc3ccccc3cc1C2=O`, the IC50 at 48 h in data set [1] was 8900 nM. Besides, the selectivity ratio in data set [2] is 99. For the same molecule, the IC50 in the data set with A549 [3] amounted to 90 nM.
The matching figures for `Cc1n(C)c2c([n+]1C)C(=O)c1ccccc1C2=O`: 2200 nM, 24 and 90 nM.
In the same order, the values of `CCc1n(C)c2c([n+]1C)C(=O)c1ccccc1C2=O` are 5600 nM, 35 and 160 nM.
On to `Cn1c[n+](C)c2c(O)c3c(c(O)c21)C1C=CC3C1` (stereo unspecified), for which, in data set [1], the IC50 at 48 h worked out at 86000 nM. In addition, the selectivity ratio in data set [2] is 2.7. The IC50 in the data set on A549 [3] amounted to 31500 nM.
In the same order, the values of `Cn1c2c([n+](C)c1-c1ccccc1F)C(=O)c1ccccc1C2=O` are 9200 nM, 10 and 920 nM.
`Cn1c[n+](C)c2c1C(=O)c1ccccc1C2=O.F[P-](F)(F)(F)(F)F`: the IC50 in the data set on L929 amounted to 1800 nM; with A549 [4], 170 nM. For the same molecule, the “Ratio IC50” value in data set [2] is 10.6.
With `Cc1ccc(S(=O)(=O)[O-])cc1.Cn1c[n+](C)c2c1C(=O)c1ccccc1C2=O`, the IC50 in the data set on L929 came to 540 nM; in the data set with A549 [4], 280 nM. In addition, the “Ratio IC50” value in data set [2] is listed as 1.9.
